In patent US12502386B2, “Nitrogen-containing heterocyclic compound and use thereof” (SHANGHAI SHIJIANG BIOTECHNOLOGY CO., LTD, priority 2022, dated 2025):

Legend:
Format in all cases: cell-based, human
Con-NCI-H82 cell = assay: CellTiter-Glo cell viability, Con-NCI-H82 cell (empty-vector control); conditions: Homo sapiens, NCI-H82, NCI-H82 transfected with empty virus vector (control), intracellular ATP, read-out: inhibitory effect on Con-NCI-H82 (IC50)
ov-NNMT NCI-H82 cell = assay: CellTiter-Glo cell viability, ov-NNMT NCI-H82 cell (NNMT overexpressed); conditions: Homo sapiens, NCI-H82, NCI-H82 overexpressing NNMT protein, intracellular ATP, read-out: inhibitory effect on OV-NNMT NCI-H82 (IC50)
sh-DNMT1 NCI-H82 cell = assay: CellTiter-Glo cell viability, sh-DNMT1 NCI-H82 cell (DNMT1 knocked down); conditions: Homo sapiens, NCI-H82, NCI-H82 with DNMT1 knocked down by shRNA, intracellular ATP, read-out: inhibitory effect on sh-DNMT1 NCI-H82 (IC50)

Structure (SMILES) | IC50 (Con-NCI-H82 cell) | IC50 (ov-NNMT NCI-H82 cell) | IC50 (sh-DNMT1 NCI-H82 cell)
COc1ccc2c(c1OC/C=C(\C)CCC=C(C)C)C(C)N1CCc3cc4c(cc3C1=C2)OCO4 (stereo not drawn) [AB35402] | 0.88 µM | 2.43 µM | 3.45 µM
CCCC1=C2c3cc4c(cc3CCN2C(C(Cl)(Cl)Cl)c2c1ccc1c2OCO1)OCO4 (stereo not drawn) [AB36427] | 3.28 µM | 7.56 µM | 6.98 µM
COc1ccc2c(c1OCCCCc1ccccc1)C(C(Cl)(Cl)Cl)N1CCc3cc4c(cc3C1=C2)OCO4 (stereo not drawn) [AB35535] | 0.22 µM | 1.21 µM | 1.32 µM
COc1ccc2c(c1OCCCBr)C(C(Cl)(Cl)Cl)N1CCc3cc4c(cc3C1=C2)OCO4 (stereo not drawn) [AB35466] | 1.01 µM | 3.56 µM | 4.48 µM
COc1ccc2c(c1OC)C(C1CCCC1)N1CCc3cc4c(cc3C1=C2CCCCCCBr)OCO4 (stereo not drawn) [AB35523] | 1.02 µM | 2.99 µM | 2.86 µM
COc1ccc2c(c1OC)C(C1CCCC1)N1CCc3cc4c(cc3C1=C2CCCCCCCl)OCO4 (stereo not drawn) [AB35500] | 1.11 µM | 2.98 µM | 2.88 µM
COc1ccc2c(c1N1CCCCCC1)CN1CCc3cc4c(cc3C1=C2)OCO4 [AB36493] | 0.29 µM | 1.58 µM | 1.98 µM
COc1ccc2c(c1OC)C(=C(Cl)Cl)N1CCc3cc4c(cc3C1=C2)OCO4 [AB36512] | 4.36 µM | 4.08 µM | 3.96 µM
COc1ccc2c(c1OCCCCCCBr)C(C)N1CCc3cc4c(cc3C1=C2)OCO4 (stereo not drawn) [AB31897] | 1.43 µM | 5.32 µM | 4.96 µM
COc1ccc2c(c1OCCCCNC(=O)OC(C)(C)C)C(C(Cl)(Cl)Cl)N1CCc3cc4c(cc3C1=C2)OCO4 (stereo not drawn) [AB35423] | 2.16 µM | 4.96 µM | 4.36 µM
COc1ccc2c(c1OCCCN1CCCCC1)C(C)N1CCc3cc4c(cc3C1=C2)OCO4 (stereo not drawn) [AB35442] | 9.22 µM | 8.38 µM | 9.32 µM
CC1c2c(ccc3c2OCO3)C=C2c3cc4c(cc3CCN21)OCO4 (stereo not drawn) [AB35413] | 5.48 µM | 14.2 µM | 20.3 µM
COc1ccc2c(c1OCCN(C)C)C(C(Cl)(Cl)Cl)N1CCc3cc4c(cc3C1=C2)OCO4 (stereo not drawn) [AB35446] | 18.4 µM | 16.3 µM | 17.9 µM
COc1ccc2c(c1OCCCCCCNC(=O)OC(C)(C)C)C(C(Cl)(Cl)Cl)N1CCc3cc4c(cc3C1=C2)OCO4 (stereo not drawn) [AB35407] | 0.74 µM | 2.73 µM | 3.44 µM
COc1ccc2c(c1OCCCCl)C(C1CCCCC1)N1CCc3cc4c(cc3C1=C2)OCO4 (stereo not drawn) [AB35491] | 2.22 µM | 6.86 µM | 6.54 µM
CCCCCCCCC1=C2c3cc4c(cc3CCN2C(C(Cl)(Cl)Cl)c2c1ccc(OC)c2OC)OCO4 (stereo not drawn) [AB35497] | 1.25 µM | 3.56 µM | 5.68 µM
COc1ccc2c(c1N1CCN(C)CC1)C(C(Cl)(Cl)Cl)N1CCc3cc4c(cc3C1=C2)OCO4 (stereo not drawn) [AB35518] | 3.52 µM | 10.1 µM | 13.3 µM
COc1ccc2c(c1OCCCF)C(C)N1CCc3cc4c(cc3C1=C2)OCO4 (stereo not drawn) [AB35485] | 4.55 µM | 12.3 µM | 16.8 µM
COc1ccc2c(c1N1CCC(C)CC1)C(C(Cl)(Cl)Cl)N1CCc3cc4c(cc3C1=C2)OCO4 (stereo not drawn) [AB35453] | 0.23 µM | 1.32 µM | 2.08 µM
COc1ccc2c(c1OC(=O)CC13CC4CC(CC(C4)C1)C3)C(C1CCCC1)N1CCc3cc4c(cc3C1=C2)OCO4 (stereo not drawn) [AB35459] | 4.97 µM | 12.3 µM | 16.5 µM
[2H]C1([2H])c2c(ccc(OC)c2OC)C=C2c3cc4c(cc3CCN21)OCO4 [AB36434] | 1.02 µM | 2.56 µM | 3.68 µM
COc1ccc2c(c1OCCCCCCNC(=O)OC(C)(C)C)C(C)N1CCc3cc4c(cc3C1=C2)OCO4 (stereo not drawn) [AB35415] | 1.14 µM | 3.42 µM | 5.48 µM
COc1ccc2c(c1OCCCBr)CN1CCc3cc4c(cc3C1C2)OCO4 (stereo not drawn) [AB31878] | 8.23 µM | 7.98 µM | 8.46 µM
COc1ccc2c(c1Cl)CN1CCc3cc4c(cc3C1=C2)OCO4 [AB36450] | 2.08 µM | 5.32 µM | 8.34 µM
[2H]C1c2c(ccc(OC)c2OC)C=C2c3cc4c(cc3CCN21)OCO4 (stereo not drawn) [AB36415] | 0.88 µM | 2.56 µM | 3.64 µM
COc1ccc2c(c1OCCCBr)C(C)N1CCc3cc4c(cc3C1=C2)OCO4 (stereo not drawn) [AB31887] | 2.83 µM | 5.78 µM | 5.69 µM
COc1ccc2c(c1OCCCF)C(C(Cl)(Cl)Cl)N1CCc3cc4c(cc3C1=C2)OCO4 (stereo not drawn) [AB35478] | 1.23 µM | 4.32 µM | 4.02 µM
COc1ccc2c(c1OCCCCCCCl)C(C(Cl)(Cl)Cl)N1CCc3cc4c(cc3C1=C2)OCO4 (stereo not drawn) [AB35475] | 1.29 µM | 4.12 µM | 4.02 µM
